Test results: the NIST ThermoML archive (doi:10.1016/j.jct.2016.11.002)

Columns and labels:
[1] = refractive index (Na D-line) (dimensionless); xn = mol fraction of the nth substance listed; conditions: 100 kPa, Liquid, Standard Abbe refractometry
[2] = xn = mol fraction of the nth substance listed; conditions: 100 kPa, Liquid; for speed of sound: Frequency=3 MHz, Single path-length method; for mass density: Vibrating tube method

COCCO [2-methoxyethan-1-ol] + CCOC(=O)OCC
Conditions | mass density, [2] [kg/m3] | refractive index, [1] | speed of sound, [2] [m/s]
298.15 K, x2 = 0 | 960.32 | 1.4001 | 1342.1
298.15 K, x2 = 0.0645 | 960.64 | 1.3989 | 1322.5
298.15 K, x2 = 0.1406 | 961.01 | 1.3976 | 1302.2
298.15 K, x2 = 0.2248 | 961.49 | 1.3963 | 1282.2
298.15 K, x2 = 0.3025 | 961.99 | 1.3951 | 1265.8
298.15 K, x2 = 0.3928 | 962.65 | 1.3936 | 1248.7
298.15 K, x2 = 0.4994 | 963.51 | 1.3916 | 1231.2
298.15 K, x2 = 0.6007 | 964.44 | 1.3897 | 1216.9
298.15 K, x2 = 0.7212 | 965.66 | 1.3874 | 1202.5
298.15 K, x2 = 0.8496 | 967.12 | 1.3851 | 1189.7
303.15 K, x2 = 0 | 955.71 | 1.3981 | 1324.7
303.15 K, x2 = 0.0645 | 955.91 | 1.3969 | 1304.6
303.15 K, x2 = 0.1406 | 956.16 | 1.3957 | 1283.8
303.15 K, x2 = 0.2248 | 956.52 | 1.3943 | 1263.4
303.15 K, x2 = 0.3025 | 956.91 | 1.3931 | 1246.7
303.15 K, x2 = 0.3928 | 957.45 | 1.3915 | 1229.4
303.15 K, x2 = 0.4994 | 958.2 | 1.3895 | 1211.7
303.15 K, x2 = 0.6007 | 959.03 | 1.3876 | 1197.2
303.15 K, x2 = 0.7212 | 960.16 | 1.3853 | 1182.5
303.15 K, x2 = 0.8496 | 961.54 | 1.3829 | 1169.5
308.15 K, x2 = 0 | 951.08 | 1.3961 | 1307.4
308.15 K, x2 = 0.0645 | 951.16 | 1.395 | 1286.7
308.15 K, x2 = 0.1406 | 951.29 | 1.3938 | 1265.4
308.15 K, x2 = 0.2248 | 951.51 | 1.3924 | 1244.7
308.15 K, x2 = 0.3025 | 951.79 | 1.3911 | 1227.7
308.15 K, x2 = 0.3928 | 952.22 | 1.3894 | 1210.2
308.15 K, x2 = 0.4994 | 952.85 | 1.3875 | 1192.4
308.15 K, x2 = 0.6007 | 953.59 | 1.3855 | 1177.7
308.15 K, x2 = 0.7212 | 954.63 | 1.3832 | 1162.7
308.15 K, x2 = 0.8496 | 955.94 | 1.3807 | 1149.3
313.15 K, x2 = 0 | 946.42 | 1.3943 | 1290
313.15 K, x2 = 0.0645 | 946.39 | 1.3931 | 1268.8
313.15 K, x2 = 0.1406 | 946.49 | 1.3918 | 1247
313.15 K, x2 = 0.2248 | 946.58 | 1.3904 | 1226
313.15 K, x2 = 0.3025 | 946.66 | 1.389 | 1208.8
313.15 K, x2 = 0.3928 | 946.97 | 1.3874 | 1191.2
313.15 K, x2 = 0.4994 | 947.49 | 1.3854 | 1173.2
313.15 K, x2 = 0.6007 | 948.13 | 1.3834 | 1158.3
313.15 K, x2 = 0.7212 | 949.08 | 1.3811 | 1143
313.15 K, x2 = 0.8496 | 950.31 | 1.3786 | 1129.4
318.15 K, x2 = 0 | 941.72 | 1.3922 | 1272.7
318.15 K, x2 = 0.0645 | 941.57 | 1.3913 | 1251
318.15 K, x2 = 0.1406 | 941.44 | 1.39 | 1228.8
318.15 K, x2 = 0.2248 | 941.41 | 1.3885 | 1207.4
318.15 K, x2 = 0.3025 | 941.48 | 1.3871 | 1190.1
318.15 K, x2 = 0.3928 | 941.67 | 1.3853 | 1172.3
318.15 K, x2 = 0.4994 | 942.07 | 1.3833 | 1154.1
318.15 K, x2 = 0.6007 | 942.61 | 1.3814 | 1139.1
318.15 K, x2 = 0.7212 | 943.46 | 1.379 | 1123.5
318.15 K, x2 = 0.8496 | 944.62 | 1.3764 | 1109.7
323.15 K, x2 = 0 | 936.89 | 1.3902 | 1255.4
323.15 K, x2 = 0.0645 | 936.71 | 1.3894 | 1233.2
323.15 K, x2 = 0.1406 | 936.46 | 1.3881 | 1210.6
323.15 K, x2 = 0.2248 | 936.29 | 1.3865 | 1188.9
323.15 K, x2 = 0.3025 | 936.25 | 1.385 | 1171.4
323.15 K, x2 = 0.3928 | 936.34 | 1.3832 | 1153.5
323.15 K, x2 = 0.4994 | 936.62 | 1.3812 | 1135.1
323.15 K, x2 = 0.6007 | 937.08 | 1.3792 | 1119.9
323.15 K, x2 = 0.7212 | 937.86 | 1.3768 | 1104.2
323.15 K, x2 = 0.8496 | 938.96 | 1.3743 | 1090

CCCOCCO [2-propoxyethanol] + CCOC(=O)OCC
Conditions | mass density, [2] [kg/m3] | refractive index, [1] | speed of sound, [2] [m/s]
298.15 K, x2 = 0 | 907.16 | 1.4103 | 1300.9
298.15 K, x2 = 0.0881 | 912.3 | 1.4089 | 1289.1
298.15 K, x2 = 0.1907 | 918.42 | 1.4074 | 1276.1
298.15 K, x2 = 0.2866 | 924.17 | 1.4062 | 1264
298.15 K, x2 = 0.3906 | 930.48 | 1.4046 | 1250.3
298.15 K, x2 = 0.484 | 936.17 | 1.4023 | 1237.8
298.15 K, x2 = 0.5955 | 943.04 | 1.3988 | 1223.4
298.15 K, x2 = 0.6907 | 948.97 | 1.3953 | 1211.7
298.15 K, x2 = 0.7908 | 955.29 | 1.3914 | 1200
298.15 K, x2 = 0.8939 | 961.94 | 1.3871 | 1188.5
303.15 K, x2 = 0 | 902.74 | 1.4081 | 1283.7
303.15 K, x2 = 0.0881 | 907.76 | 1.4068 | 1271.7
303.15 K, x2 = 0.1907 | 913.74 | 1.4054 | 1258.2
303.15 K, x2 = 0.2866 | 919.36 | 1.4042 | 1245.6
303.15 K, x2 = 0.3906 | 925.55 | 1.4026 | 1231.5
303.15 K, x2 = 0.484 | 931.11 | 1.4004 | 1218.7
303.15 K, x2 = 0.5955 | 937.84 | 1.3968 | 1203.9
303.15 K, x2 = 0.6907 | 943.65 | 1.3933 | 1192
303.15 K, x2 = 0.7908 | 949.85 | 1.3894 | 1180.1
303.15 K, x2 = 0.8939 | 956.4 | 1.385 | 1168.3
308.15 K, x2 = 0 | 898.32 | 1.4058 | 1266.4
308.15 K, x2 = 0.0881 | 903.19 | 1.4046 | 1254.2
308.15 K, x2 = 0.1907 | 909.01 | 1.4034 | 1240.2
308.15 K, x2 = 0.2866 | 914.52 | 1.4023 | 1227.1
308.15 K, x2 = 0.3906 | 920.55 | 1.4006 | 1212.7
308.15 K, x2 = 0.484 | 926.02 | 1.3984 | 1199.7
308.15 K, x2 = 0.5955 | 932.6 | 1.3948 | 1184.6
308.15 K, x2 = 0.6907 | 938.31 | 1.3912 | 1172.3
308.15 K, x2 = 0.7908 | 944.38 | 1.3873 | 1160.2
308.15 K, x2 = 0.8939 | 950.83 | 1.3828 | 1148.2
313.15 K, x2 = 0 | 893.89 | 1.4034 | 1249.2
313.15 K, x2 = 0.0881 | 898.63 | 1.4024 | 1236.8
313.15 K, x2 = 0.1907 | 904.33 | 1.4014 | 1222.3
313.15 K, x2 = 0.2866 | 909.68 | 1.4004 | 1208.8
313.15 K, x2 = 0.3906 | 915.57 | 1.3987 | 1194
313.15 K, x2 = 0.484 | 920.91 | 1.3964 | 1180.7
313.15 K, x2 = 0.5955 | 927.35 | 1.3928 | 1165.3
313.15 K, x2 = 0.6907 | 932.94 | 1.3892 | 1152.9
313.15 K, x2 = 0.7908 | 938.9 | 1.3851 | 1140.5
313.15 K, x2 = 0.8939 | 945.23 | 1.3805 | 1128.3
318.15 K, x2 = 0 | 889.45 | 1.4011 | 1231.9
318.15 K, x2 = 0.0881 | 894.03 | 1.4003 | 1219.3
318.15 K, x2 = 0.1907 | 899.58 | 1.3995 | 1204.5
318.15 K, x2 = 0.2866 | 904.8 | 1.3985 | 1190.6
318.15 K, x2 = 0.3906 | 910.54 | 1.3967 | 1175.3
318.15 K, x2 = 0.484 | 915.74 | 1.3944 | 1161.8
318.15 K, x2 = 0.5955 | 922.05 | 1.3908 | 1146.2
318.15 K, x2 = 0.6907 | 927.53 | 1.3872 | 1133.5
318.15 K, x2 = 0.7908 | 933.4 | 1.3831 | 1121
318.15 K, x2 = 0.8939 | 939.63 | 1.3782 | 1108.6
323.15 K, x2 = 0 | 885 | 1.3988 | 1215
323.15 K, x2 = 0.0881 | 889.44 | 1.3982 | 1201.9
323.15 K, x2 = 0.1907 | 894.82 | 1.3975 | 1186.8
323.15 K, x2 = 0.2866 | 899.91 | 1.3966 | 1172.5
323.15 K, x2 = 0.3906 | 905.53 | 1.3947 | 1156.9
323.15 K, x2 = 0.484 | 910.62 | 1.3924 | 1143.2
323.15 K, x2 = 0.5955 | 916.75 | 1.3888 | 1127.3
323.15 K, x2 = 0.6907 | 922.11 | 1.3852 | 1114.5
323.15 K, x2 = 0.7908 | 927.83 | 1.3809 | 1101.7
323.15 K, x2 = 0.8939 | 933.96 | 1.376 | 1089
